Experimental data taken from patent US11008572B2, “Methods and compositions for modulating splicing” (SKYHAWK THERAPEUTICS, INC., priority 2017, dated 2021).

Test system: A-673 cells
Assay: Cell viability, crystal violet staining
Type: cell-based
Settings: Homo sapiens, A673, cell viability, read-out: A-673 IC50 (nM) Cell viability
Experimental: To measure cell viability, cells were plated in 96-well plastic tissue culture plates at a density of 5×10^3 cells/well. Twenty-four hours after plating, cells were treated with various SMSMs. After 72 hours, the cell culture media were removed and plates were stained with […] of a solution containing 0.5% crystal violet and 25% methanol, rinsed with deionized water, dried overnight, and resuspended in […] citrate buffer (0.1 M sodium citrate in 50% ethanol) to assess plating efficiency. Intensity of crystal violet staining, assessed at 570 nm and quantified using a Vmax Kinetic Microplate Reader and Softmax software (Molecular Devices Corp., Menlo Park, Calif.), were directly proportional to cell number. Data were normalized to vehicle-treated cells and were presented as the mean±SE from representative experiments. SMSMs that are effective were determined for various cells lines.
A-673 cell viability […], splicing (IC50) and brain AUC/Plasma AUC of SMSMs were determined. As shown in the tables below SMSMs had high CNS exposure.

| SMILES | IC50 |
| --- | --- |
| COc1cc(-c2ccc(-c3ccc(N(C)[C@H]4C[C@]5(C)CC[C@](C)(C4)N5)nn3)c(O)c2)cc(F)n1 [compound 189, 2-(6-(((1R,3s,5S)-1,5-dimethyl-8-azabicyclo[3.2.1]octan-3-yl)(methyl)amino)pyridazin-3-yl)-5-(2-fluoro-6-methoxypyridin-4-yl)phenol] | 10 to 100 nM |
| CN(c1ccc(-c2ccc(-c3cc(O)nc(F)c3)cc2O)nn1)[C@H]1C[C@]2(C)CC[C@](C)(C1)N2 [compound 190, 4-(4-(6-(((1R,3s,5S)-1,5-dimethyl-8-azabicyclo[3.2.1]octan-3-yl)(methyl)amino)pyridazin-3-yl)-3-hydroxyphenyl)-6-fluoropyridin-2-ol] | 101 to 250 nM |
| CN(c1ccc(-c2cc(F)c(-c3ccn(CF)c(=O)c3)cc2O)nn1)[C@H]1C[C@]2(C)CC[C@](C)(C1)N2 [compound 193, 4-(4-(6-(((1R,3s,5S)-1,5-dimethyl-8-azabicyclo[3.2.1]octan-3-yl)(methyl)amino)pyridazin-3-yl)-2-fluoro-5-hydroxyphenyl)-1-(fluoromethyl)pyridin-2(1H)-one] | < 10 nM |
| CN(c1ccc(-c2ccc(-c3cc(=O)n(C)cn3)cc2O)nn1)[C@H]1C[C@]2(C)CC[C@](C)(C1)N2 [compound 194, 6-(4-(6-(((1R,3s,5S)-1,5-dimethyl-8-azabicyclo[3.2.1]octan-3-yl)(methyl)amino)pyridazin-3-yl)-3-hydroxyphenyl)-3-methylpyrimidin-4(3H)-one] | 10 to 100 nM |
| CN(c1ccc(-c2ccc(-c3cc(C#N)n(C)c3)cc2O)nn1)[C@H]1C[C@]2(C)CC[C@](C)(C1)N2 [compound 195, 4-(4-(6-(((1R,3s,5S)-1,5-dimethyl-8-azabicyclo[3.2.1]octan-3-yl)(methyl)amino)pyridazin-3-yl)-3-hydroxyphenyl)-1-methyl-1H-pyrrole-2-carbonitrile] | 501 to 1000 nM |
| CN(c1ccc(-c2ccc(-n3cnc(C#N)c3)cc2O)nn1)[C@H]1C[C@]2(C)CC[C@](C)(C1)N2 [compound 196, 1-(4-(6-(((1R,3s,5S)-1,5-dimethyl-8-azabicyclo[3.2.1]octan-3-yl)(methyl)amino)pyridazin-3-yl)-3-hydroxyphenyl)-1H-imidazole-4-carbonitrile] | 251 to 500 nM |
| CN(c1ccc(-c2cc(F)c(-n3cnc(C#N)c3)cc2O)nn1)[C@H]1C[C@]2(C)CC[C@](C)(C1)N2 [compound 197, 1-(4-(6-(((1R,3s,5S)-1,5-dimethyl-8-azabicyclo[3.2.1]octan-3-yl)(methyl)amino)pyridazin-3-yl)-2-fluoro-5-hydroxyphenyl)-1H-imidazole-4-carbonitrile] | > 1000 nM |
| CN(c1ccc(-c2cc(F)c(-c3cc(=O)n(C)cn3)cc2O)nn1)[C@H]1C[C@]2(C)CC[C@](C)(C1)N2 [compound 198, 6-(4-(6-(((1R,3s,5S)-1,5-dimethyl-8-azabicyclo[3.2.1]octan-3-yl)(methyl)amino)pyridazin-3-yl)-2-fluoro-5-hydroxyphenyl)-3-methylpyrimidin-4(3H)-one] | < 10 nM |
| CN(c1ccc(-c2ccc(-c3ccnc(C#N)c3)cc2O)nn1)[C@H]1C[C@]2(C)CC[C@](C)(C1)N2 [compound 199] | 10 to 100 nM |
| CN(c1ccc(-c2ccc(-n3cc(C#N)cn3)cc2O)nn1)[C@H]1C[C@]2(C)CC[C@](C)(C1)N2 [compound 200, 1-(4-(6-(((1R,3s,5S)-1,5-dimethyl-8-azabicyclo[3.2.1]octan-3-yl)(methyl)amino)pyridazin-3-yl)-3-hydroxyphenyl)-1H-pyrazole-4-carbonitrile] | 101 to 250 nM |
| CCN(c1ccc(-c2ccc(-c3cn[nH]c3)cc2O)nn1)[C@H]1C[C@]2(C)CC[C@](C)(C1)N2 [compound 201, 2-(6-(((1R,3s,5S)-1,5-dimethyl-8-azabicyclo[3.2.1]octan-3-yl)(ethyl)amino)pyridazin-3-yl)-5-(1H-pyrazol-4-yl)phenol] | 10 to 100 nM |
| CCN(c1ccc(-c2cc(F)c(-c3cn[nH]c3)cc2O)nn1)[C@H]1C[C@]2(C)CC[C@](C)(C1)N2 [compound 202, 2-(6-(((1R,3s,5S)-1,5-dimethyl-8-azabicyclo[3.2.1]octan-3-yl)(ethyl)amino)pyridazin-3-yl)-4-fluoro-5-(1H-pyrazol-4-yl)phenol] | 10 to 100 nM |
| CN(c1ccc(-c2ccc(-n3ccc(C#N)c3)cc2O)nn1)[C@H]1C[C@]2(C)CC[C@](C)(C1)N2 [compound 203, 1-(4-(6-(((1R,3s,5S)-1,5-dimethyl-8-azabicyclo[3.2.1]octan-3-yl)(methyl)amino)pyridazin-3-yl)-3-hydroxyphenyl)-1H-pyrrole-3-carbonitrile] | 10 to 100 nM |
| CN(c1ccc(-c2ccc(-c3cc(F)nc(F)c3)cc2O)nn1)[C@H]1C[C@]2(C)CC[C@](C)(C1)N2 [compound 204, 5-(2,6-difluoropyridin-4-yl)-2-(6-(((1R,3s,5S)-1,5-dimethyl-8-azabicyclo[3.2.1]octan-3-yl)(methyl)amino)pyridazin-3-yl)phenol] | 100 to 500 nM |
| [2H]C([2H])([2H])Oc1cc(-c2ccc(-c3ccc(N(C)[C@H]4C[C@]5(C)CC[C@](C)(C4)N5)nn3)c(O)c2)cnn1 [compound 205, 2-(6-(((1R,3s,5S)-1,5-dimethyl-8-azabicyclo[3.2.1]octan-3-yl)(methyl)amino)pyridazin-3-yl)-5-(6-(methoxy-d3)pyridazin-4-yl)phenol] | < 10 nM |
| [2H]C([2H])([2H])Oc1cc(-c2cc(O)c(-c3ccc(N(C)[C@H]4C[C@]5(C)CC[C@](C)(C4)N5)nn3)cc2F)cnn1 [compound 206, 2-(6-(((1R,3s,5S)-1,5-dimethyl-8-azabicyclo[3.2.1]octan-3-yl)(methyl)amino)pyridazin-3-yl)-4-fluoro-5-(6-(methoxy-d3)pyridazin-4-yl)phenol] | < 10 nM |
| [2H]C([2H])([2H])Oc1cc(-c2ccc(-c3ccc(N(C)[C@H]4C[C@]5(C)CC[C@](C)(C4)N5)nn3)c(O)c2)cc(F)n1 [compound 207, 2-(6-(((1R,3s,5S)-1,5-dimethyl-8-azabicyclo[3.2.1]octan-3-yl)(methyl)amino)pyridazin-3-yl)-5-(2-fluoro-6-(methoxy-d3)pyridin-4-yl)phenol] | 10 to 100 nM |
| [2H]C([2H])([2H])Oc1cc(-c2cc(O)c(-c3ccc(N(C)[C@H]4C[C@]5(C)CC[C@](C)(C4)N5)nn3)cc2F)cc(F)n1 [compound 208, 2-(6-(((1R,3s,5S)-1,5-dimethyl-8-azabicyclo[3.2.1]octan-3-yl)(methyl)amino)pyridazin-3-yl)-4-fluoro-5-(2-fluoro-6-(methoxy-d3)pyridin-4-yl)phenol] | > 1000 nM |
| COc1cccc(-c2ccc(-c3ccc(N(C)[C@H]4C[C@]5(C)CC[C@](C)(C4)N5)nn3)c(O)c2)c1 [compound 209, 4-(6-(((1R,3s,5S)-1,5-dimethyl-8-azabicyclo[3.2.1]octan-3-yl)(methyl)amino)pyridazin-3-yl)-3′-methoxy-[1,1′-biphenyl]-3-ol] | > 1000 nM |
| COc1cc(-c2ccc(-c3ccc(N(C)[C@H]4C[C@]5(C)CC[C@](C)(C4)N5)nn3)c(O)c2)ccc1F [compound 210, 4-(6-(((1R,3s,5S)-1,5-dimethyl-8-azabicyclo[3.2.1]octan-3-yl)(methyl)amino)pyridazin-3-yl)-4′-fluoro-3′-methoxy-[1,1′-biphenyl]-3-ol] | 251 to 500 nM |

Same assay, conditions: Homo sapiens, A673, read-out: A-673 cell viability (IC50)

| SMILES | IC50 |
| --- | --- |
| CN(c1ccc(-c2cc(F)c(-c3ccn(CF)c(=O)c3)cc2O)nn1)[C@H]1C[C@]2(C)CC[C@](C)(C1)N2 [compound 193, 4-(4-(6-(((1R,3s,5S)-1,5-dimethyl-8-azabicyclo[3.2.1]octan-3-yl)(methyl)amino)pyridazin-3-yl)-2-fluoro-5-hydroxyphenyl)-1-(fluoromethyl)pyridin-2(1H)-one] | < 3 nM |
